Results: publication PMC11472388 (ACS Medicinal Chemistry Letters, 2024)
“And” between values parts separate entries of the source, which are not always exact repeats. Equal entries are not always repeated. Where two headings read alike, the source gives them in different places. Where a SMILES comes first, the peptide text is derived from it. Bridges are numbered along the chain shown (N, C = ends). [ ]: non-standard residue; d: D form. The star is where a group is joined. βGlc = OC[C@H]1O[C@@H](*)[C@H](O)[C@@H](O)[C@@H]1O; 1Nal = N[C@@H](Cc1cccc2ccccc12)C(=O)O

What was measured:
[1] = In vivo microdialysis and plasma pharmacokinetics (BBB penetration); set-up: species or system Sprague-Dawley rats; settings: rat, 10 mg/kg i.v.; for AUC Brain (estimated CSF, brain dialysate): striatal dialysate 0-60 min
Protocol: Following intravenous bolus injection, AUC, Cmax, half-life, and Tmax were determined in plasma and CSF dialysate, and the CSF/plasma ratios for AUC of the analogs were compared (Table 1).
Blood Brain Barrier Penetration and Pharmacokinetics
Animals: Male, Sprague-Dawley rats (225-325, n = 3/group; Envigo RMC Inc., Indianapolis, IN were used for in vivo microdialysis and pharmacokinetic experiments. Rats were co-housed in a temperature/humidity-controlled room on a 12-h reversed light/dark cycle. Food and water were available ad libitum. Animal studies were approved by The University of Arizona Institutional Animal Care and Use Committee, in accordance with NIH’s Care and Use of Laboratory Animals […]
Carotid Artery Catheterization and Microdialysis Surgery: Both procedures were performed in the same anesthetic event in accordance with our previous studies, with one exception, the left carotid artery was catheterized in each animal.2
In Vivo Microdialysis and Plasma Sampling: Blood-brain-barrier penetration and […]
same time to minimize injection site variations and individual differences between the animals. […]
following changes (Figure S3). 2, 4 The microdialysis probe (FZ-8-04; Amuza, San Diego, CA) was inserted into the striatum and perfused with aCSF (15 mM Tris HCl, 10 mM Tris base, 126 mM NaCl, 2.5 KCl, 1.2 mM NaH 2PO4, 2mM Na 2SO4, and adjusted pH to 7.4) at a rate of 0.5 µL/minute using one channel of a dual syringe pump (Fusion 101A Syringe Pump; Chemyx, Stafford, TX).
Boise, ID) and injected via the lateral tail vein. Brain dialysate samples used to estimate CSF were collected over 10 minutes, where t = 0 corresponds to the injection: t = -10, 0, 10, 20, 30, 40, 50, and 60 minutes. Blood was sampled to correspond with the median timepoint of the dialysate fraction, where t = 0 corresponds to the injection: t = -5, 0, 1, 5, 15, 25, 35, 45, and 55 […]
minutes. To separate plasma from whole blood, each sample was collected in ethylenediamine tetraacetic acid capillary tubes (CT-CB300-K2EDTA; Sarstedt, Nümbrecht, Germany), inverted repeatedly for 30 seconds, and centrifuged for 10 minutes at 2,000 x g in a refrigerated centrifuge (Galaxy Mini Centrifuge; VWR, Radnor, PA).
Brain dialysate (5 μL) and plasma (5 μL) were mixed with 5 μL and 50 μL of preservation solution […]
Enkephalin), respectively, and then vortexed for 10 seconds. 90 μL of cold acetone and deionized water (75:25, v/v) was added to precipitate dialysate and plasma proteins. After vortexing for 30 seconds, samples were centrifuged at 13,000 rpm for 15 minutes at 4 °C. The supernatant was evaporated using a Savant Speedvac concentrator. Dialysate and plasma samples were reconstituted in a 20 μL and 200 μL diluent (2% acetonitrile and 0.1% formic acid in deionized water), respectively. Samples were injected into the ThermoFisher UHPLC-MS/MS TSQ system.
Chromatographic separation was achieved on an ACQUITY UPLC HSS T3 C18 Column (100 Å, 1.8 µm, 2.1 X 100 mm) and VanGuard pre-column (HSS T3 1.8 μm, 2.1 X 5 mm) with the temperature set at 20 ℃. A water-acetonitrile gradient with a 0.3 mL/minute flow rate was used.
The mobile phases used were A: 0.1% v/v formic acid in deionized water and B: 0.1% v/v formic acid in acetonitrile. An injection volume of 8 µL was used. Detection was achieved using a Thermo Fisher TSQ Fortis Plus mass spectrometry instrument with an H-ESI ion source. The instrument was operated in a positive ion mode. The MRM mode was used for quantification using target […]
protonated ZH853 (MW 809.92 gmol-1). Concentrations were calculated using the response factor-concentration plot. Pharmacokinetic parameters, including the area under the curve (AUC), maximum plasma concentration (Cmax), the time to reach Cmax (Tmax), and half-life (t1/2), were […]
(§1) using the microdialysis probe recovery rate. All data are presented as mean ± SEM.

mu opioid receptor (MOR) = target: T1, mu opioid receptor (MOR) (Homo sapiens, UniProt P35372); assay: Opioid receptor binding (NIMH PDSP), MOR
T1 construct: NIMH Psychoactive Drug Screening Program (PDSP)
From the text: (§2) Ki determinations at the 3 canonical opioid receptors, MOR, DOR. and KOR. were generously performed by the NIMH Psychoactive Drug Screening Program (PDSP), directed by Bryan L. Roth at the University of North Carolina at Chapel Hill and Project Officer Jamie Driscoll at NIMH, Bethesda. MD.

[2] = target: T2, delta opioid receptor (DOR) (Homo sapiens, UniProt P41143); assay: Opioid receptor binding (NIMH PDSP), DOR
T2 construct: NIMH Psychoactive Drug Screening Program (PDSP)
From the text: as §2

[3] = target: T3, kappa opioid receptor (KOR) (Homo sapiens, UniProt P41145); assay: Opioid receptor binding (NIMH PDSP), KOR
T3 construct: NIMH Psychoactive Drug Screening Program (PDSP)
From the text: as §2

MOR = target: T4, MOR (Homo sapiens, UniProt P35372); assay: Gi signaling (inhibition of cAMP) in opioid-receptor-expressing HEK cells, MOR; assay type: cell-based
T4 construct: host or cells: HEK cells expressing the receptor (from the earlier reading's assay name)
Protocol: (§3) Opioid-receptor-specific functional activity was assessed in cyclicAMP (cAMP) assays by PDSP.

DOR = target: T5, DOR (Homo sapiens, UniProt P41143); assay: Gi signaling (inhibition of cAMP) in opioid-receptor-expressing HEK cells, DOR; assay type: cell-based
T5 construct: host or cells: HEK cells expressing the receptor (from the earlier reading's assay name)
Protocol: as §3

KOR = KOR (Homo sapiens, UniProt P41145); assay: cell-based; settings: HEK cells; means and SEMs of 3–6 assays; read-out: IC50 KOR (κ), cAMP
[4] = test system: male and female CD-1 mice; assay: Tail flick (TF) antinociception; assay type: in vivo; settings: for ED50: Mus musculus, sc
From the text: as §1
For the dialysate, the mean
Animals: Male and female CD-1 and DBA mice, 21–29 g at testing, were obtained from Charles River (Wilmington, MA) and housed in a 12-h light/dark cycle. All experiments were approved by the Tulane Institutional Animal Care and Use Committee and conducted according to the NIH Guide for the Care and Use of Laboratory Animals. All efforts were made to minimize animal suffering and to reduce the number of animals used.
Tail Flick (TF): CD1 mice were used for this test. The latency to withdraw the tail from a heat source was automatically measured (IITC, Woodland Hills, CA). […]
with a cutoff time of 9 s to prevent tissue damage. Percent Maximum Possible Effect (%MPE) was determined as [(latency-baseline latency)/(9-baseline latency)]*100. […]
(§4) calculated and used as the peak response for determining ED50’s. Initial tests, based on previous studies with ZH853, were 3h in duration.
(§5) Additional subgroups (n = 4-5) were therefore tested for 5h. […] For the time course (Figure 3) […]
(§6) animals were used. Duration of antinociception was assessed using both the area under the curve (AUC) and duration of antinociception, calculated as the time from the first to the last time point greater than or equal to 50% MPE.
(§7) Hot Plate (HP) Test: This test reflects a supraspinally organized complex response, 6 and was used to assess the CNS activation of antinociception by peripherally (s.c.) administered […]
(§8) to reduce test compound requirements. The HP apparatus (IITC, Woodland Hills, CA) was set to 55.5°C, a temperature that elicited a response after 7-9 sec. Three baseline HP latencies to rapidly lift, lick, or shake the hind paws were taken prior to drug injection. Mice were removed from the HP after a maximum of 30 sec. Mice were injected with several analogs (0–5.6 mg/kg s.c.) and tested from 30–300 min after injection.
(%MPE) as described for TF.

male and female DBA mice = assay: animal or person; assay type: in vivo; settings: for ED50: Mus musculus, sc
Protocol: as §4, §5, §6, §7, §8
(%MPE) as described for TF. […]
each of those respective times was therefore calculated and used as the peak response for determining ED50’s. These values were used to calculate area under the curve (AUC). The duration of antinociception greater than 50% MPE was calculated as with TF.
Figure S3. Microdialysis and Pharmacokinetics Experiment Scheme.
Scheme depicts catheterization and microdialysis of the rat striatum. […]
endomorphin-1 analog (10 mg/kg; i.v.) ZH853 = ZH853•HCl (10 mg/kg; i.v.); aCSF = artificial cerebrospinal fluid. Created with BioRender.com (Agreement number MH26RXD2YP).
(1 picture or pasted object on this page, not shown here)

[5] = male, Sprague-Dawley, iv, brain dialysate, read-out: Tmax Brain (dialysate) (converted)
[6] = male, Sprague-Dawley, iv, plasma, read-out: Tmax Plasma (converted)
[7] = male, Sprague-Dawley, brain dialysate, iv, 10 mg/kg, brain dialysate, read-out: Half-life Brain (dialysate)
[8] = male, Sprague-Dawley, plasma, iv, 10 mg/kg
[9] = male, Sprague-Dawley, plasma, iv, 10 mg/kg, plasma 0-55 min, n=3
[10] = male, Sprague-Dawley, plasma, iv, 10 mg/kg, plasma, read-out: Half-life Plasma
[11] = tail flick, 10 mg/kg morphine, 1.8 mg/kg A2

T4 sequence (P35372 whole entry): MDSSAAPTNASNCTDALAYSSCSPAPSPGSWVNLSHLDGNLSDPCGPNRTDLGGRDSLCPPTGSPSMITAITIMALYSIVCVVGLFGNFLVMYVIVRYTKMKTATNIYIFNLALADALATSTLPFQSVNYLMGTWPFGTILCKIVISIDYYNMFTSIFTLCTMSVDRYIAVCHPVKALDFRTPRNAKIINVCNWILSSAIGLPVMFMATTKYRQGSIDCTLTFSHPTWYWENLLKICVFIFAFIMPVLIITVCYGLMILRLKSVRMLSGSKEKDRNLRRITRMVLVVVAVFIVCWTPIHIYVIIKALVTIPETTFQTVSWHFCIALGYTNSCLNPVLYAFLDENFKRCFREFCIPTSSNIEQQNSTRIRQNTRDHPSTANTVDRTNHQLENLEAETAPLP
T1 sequence (P35372 whole entry): as above
T3 sequence (P41145 whole entry): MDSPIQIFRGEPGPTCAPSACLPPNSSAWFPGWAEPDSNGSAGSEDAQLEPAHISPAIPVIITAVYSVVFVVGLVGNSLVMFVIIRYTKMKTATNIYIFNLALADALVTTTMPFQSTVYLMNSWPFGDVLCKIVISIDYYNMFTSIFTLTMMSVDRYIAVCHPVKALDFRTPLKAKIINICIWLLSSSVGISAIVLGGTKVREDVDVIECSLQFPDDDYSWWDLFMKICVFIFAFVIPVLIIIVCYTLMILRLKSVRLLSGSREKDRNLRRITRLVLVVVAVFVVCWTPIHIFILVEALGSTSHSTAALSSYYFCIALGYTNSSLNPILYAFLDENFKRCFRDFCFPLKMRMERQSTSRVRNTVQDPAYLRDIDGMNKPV
KOR, sequence (P41145 whole entry): as above
T2 sequence (P41143 whole entry): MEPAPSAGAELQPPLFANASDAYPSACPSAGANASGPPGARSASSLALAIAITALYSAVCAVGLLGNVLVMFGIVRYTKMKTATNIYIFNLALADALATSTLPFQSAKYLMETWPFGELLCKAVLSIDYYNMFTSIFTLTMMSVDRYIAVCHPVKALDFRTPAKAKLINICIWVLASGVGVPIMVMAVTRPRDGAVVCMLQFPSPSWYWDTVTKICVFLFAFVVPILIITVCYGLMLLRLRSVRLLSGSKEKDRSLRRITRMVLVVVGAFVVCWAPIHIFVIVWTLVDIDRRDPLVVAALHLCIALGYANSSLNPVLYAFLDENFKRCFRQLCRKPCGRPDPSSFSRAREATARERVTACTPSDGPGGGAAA
T5 sequence (P41143 whole entry): as above

Structure (SMILES): NC(=O)CNC(=O)[C@@H]1CCC(=O)NCCCC[C@@H](NC(=O)[C@@H](N)Cc2ccc(O)cc2)C(=O)N[C@@H](Cc2c[nH]c3ccccc23)C(=O)N[C@@H](Cc2ccccc2)C(=O)N1 [ZH853]
- Tmax [1, 5]: 28 min
- Tmax [1, 6]: 2 min
- half-life [1, 7]: 6.1 ± 0.7 min
- Cmax [1, 8]: 16.5 ± 3 µM
- AUC [1, 9]: 1.83 µM·h
- half-life [1, 10]: 15.9 ± 2.3 min
- AUC CSF/Plasma ratio [1]: 0.189
- Cmax Brain (dialysate) ([1]; brain dialysate, 10 mg/kg): 1.5 ± 0.2 µM and 2 ± 0.2 µM
- Half-life Brain (dialysate) ([1]; brain dialysate, 10 mg/kg): 6 ± 0.7 min
- AUC Plasma ([1]; plasma 0-55 min, n=3, 10 mg/kg): 110 ± 37 µM·min
- Cmax ([1]; plasma, 10 mg/kg): 17 ± 3 µM
- Half-life Plasma ([1]; plasma, 10 mg/kg): 16 ± 2 min
- AUC Brain (estimated CSF, brain dialysate) ([1]; n=3, 10 mg/kg): 20.7 ± 7.9 µM·min and 21 ± 8 µM·min
- Ki (mu opioid receptor (MOR)): 0.61 ± 0.2 nM
- Ki MOR (μ) (mu opioid receptor (MOR); mean ± SEM of 3 replicate assays): subnanomolar
- Selectivity δ/μ (binding) (mu opioid receptor (MOR); ratio of Ki): 631
- Selectivity κ/μ (binding) (mu opioid receptor (MOR); ratio of Ki): 2353
- Ki [2]: 385 ± 61 nM
- Ki [3]: 1440 ± 306 nM
- IC50 (MOR): 0.07 ± 0.04 nM
- Selectivity δ/μ (cAMP) (MOR; ratio of IC50): 5220
- Selectivity κ/μ (cAMP) (MOR; ratio of IC50): 31460
- IC50 (DOR): 377 ± 166 nM
- IC50 (KOR): 2270 ± 273 nM

Structure (SMILES): CN1CC[C@]23c4c5ccc(O)c4O[C@H]2[C@@H](O)C=C[C@H]3[C@H]1C5 [morphine]
- ED50 ([4]; female CD-1 mice, %MPE at peak response, read-out: Tail flick ED50 Female): 1.57 ± 0.35 mg/kg
- ED50 ([4]; female CD-1 mice, read-out: Tail flick ED50 Female): 4.69 ± 1.08 µmol/kg
- ED50 ([4]; male CD-1 mice, read-out: Tail flick ED50 Male): 3.74 ± 0.39 µmol/kg
- Time of peak response ([4]; tail flick): 20 to 30 min
- Duration of antinociception ([4]; tail flick, 5.6 mg/kg): ~2 h
- Antinociception at matched doses [4, 11]: 100 %MPE
- Duration of antinociception at matched doses [4, 11]: > 3 h
- ED50 (male and female DBA mice; female DBA mice, %MPE at peak response, read-out: Hot plate ED50 Female): 2.33 ± 0.18 mg/kg
- ED50 (male and female DBA mice; female DBA mice, read-out: Hot plate ED50 Female): 6.99 ± 0.52 µmol/kg
- ED50 (male and female DBA mice; male DBA mice, %MPE at peak response, read-out: Hot plate ED50 Male): 2.82 ± 0.24 mg/kg
- ED50 (male and female DBA mice; male DBA mice, read-out: Hot plate ED50 Male): 8.43 ± 0.73 µmol/kg
- Time of peak response (male and female DBA mice; hot plate): 30 to 45 min

Structure (SMILES): NC(=O)[C@H](CO[C@@H]1O[C@H](CO)[C@@H](O)[C@H](O)[C@H]1O)NC(=O)[C@@H]1CCC(=O)NCCCC[C@@H](NC(=O)[C@@H](N)Cc2ccc(O)cc2)C(=O)N[C@@H](Cc2cccc3ccccc23)C(=O)N[C@@H](Cc2ccccc2)C(=O)N1 [Analog A6] (H-Y[dK][1Nal]FES(βGlc)-NH2; lactam 2-5; N-terminus assumed)
- Shift (reduction) of MOR affinity by glycosylation (mu opioid receptor (MOR); relative to unglycosylated peptides): ~5 fold

Structure (SMILES): NC(=O)[C@H](CO[C@@H]1O[C@H](CO)[C@@H](O)[C@H](O)[C@H]1O)NC(=O)[C@@H]1CCC(=O)NCCCC[C@@H](NC(=O)[C@@H](N)Cc2ccc(O)cc2)C(=O)N[C@@H](Cc2c[nH]c3ccccc23)C(=O)N[C@@H](Cc2ccccc2)C(=O)N1 [Analog A1]
- Tmax [1, 5]: 5 min
- Tmax [1, 6]: 1 min
- half-life [1, 7]: 16.6 ± 7.9 min
- Cmax [1, 8]: 15.7 ± 7.4 µM
- AUC [1, 9]: 2.62 µM·h
- half-life [1, 10]: 25.9 ± 5.7 min
- AUC of plasma, increase over ZH853 ([1]; 0-55 min): ~ 1.5 fold
- AUC of estimated CSF, increase over ZH853 ([1]; 0-60 min): ~ 8 fold
- Cmax Brain (dialysate) ([1]; brain dialysate, 10 mg/kg): 10.8 ± 6.5 µM and 11 ± 7 µM
- AUC Brain (estimated CSF, brain dialysate) ([1]; n=3, 10 mg/kg): 141.0 ± 69.2 µM·min and 141 ± 69 µM·min

Structure (SMILES): NC(=O)[C@H](CO)NC(=O)[C@@H]1CCC(=O)NCCCC[C@@H](NC(=O)[C@@H](N)Cc2ccc(O)cc2)C(=O)N[C@@H](Cc2c[nH]c3ccccc23)C(=O)N[C@@H](Cc2ccccc2)C(=O)N1 [Analog A8]
- Ki [3]: 1260 ± 145 nM
